Literature values in patent US5296224A, “Kava-kava extract, process for the production thereof and use thereof” (Dr. Wilmar Schwabe GmbH & Co., priority 1990, dated 1994).

Key:
skin = details: Shulgin 1973
[1] = administered as pure substance; Kretschmer, MMW 4/1970
[2] = 21° C.

skin-specific secondary effects (skin)	Structure (SMILES)	effective daily dose [1]	maximum solubility in water [2]
skin-specific secondary effects	COc1ccc(/C=C/C(=O)c2c(O)cc(OC)cc2OC)cc1 [flavokawin A]		
skin-specific secondary effects	COc1cc(O)c(C(=O)/C=C/c2ccccc2)c(OC)c1 [flavokawin B]		
	COC1=CC(=O)O[C@@H](/C=C/c2ccccc2)C1 [kawain]	about 200 mg	2.2 mg/100 ml water
